The source of these data is patent US20220089575A1, “FARNESOID X RECEPTOR AGONISTS AND USES THEREOF” (Metacrine, Inc., priority 2017, published 2022).

As a reminder, the EC50 is the concentration giving half of the maximal effect. A high value points to lower potency in that assay.

The test addresses T1, hFXR (Homo sapiens, UniProt Q96RI1).
T1 construct: expressed in transfected cells; host or cells: CV-1 cells
T1 sequence (Q96RI1 1-486): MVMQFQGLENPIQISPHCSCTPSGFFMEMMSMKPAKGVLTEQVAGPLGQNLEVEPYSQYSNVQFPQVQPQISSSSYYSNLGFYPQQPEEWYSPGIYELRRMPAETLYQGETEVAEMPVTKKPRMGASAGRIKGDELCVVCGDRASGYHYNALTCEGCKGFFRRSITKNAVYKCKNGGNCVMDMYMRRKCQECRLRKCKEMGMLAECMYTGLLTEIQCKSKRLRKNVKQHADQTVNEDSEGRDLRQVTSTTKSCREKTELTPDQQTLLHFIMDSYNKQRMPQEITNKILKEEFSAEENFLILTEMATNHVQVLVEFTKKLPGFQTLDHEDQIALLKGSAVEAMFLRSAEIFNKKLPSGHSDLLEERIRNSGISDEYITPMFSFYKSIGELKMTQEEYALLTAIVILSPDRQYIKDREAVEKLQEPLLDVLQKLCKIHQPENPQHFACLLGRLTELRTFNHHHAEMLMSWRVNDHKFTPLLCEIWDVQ
T1 sequence (P19793 1-462 partner): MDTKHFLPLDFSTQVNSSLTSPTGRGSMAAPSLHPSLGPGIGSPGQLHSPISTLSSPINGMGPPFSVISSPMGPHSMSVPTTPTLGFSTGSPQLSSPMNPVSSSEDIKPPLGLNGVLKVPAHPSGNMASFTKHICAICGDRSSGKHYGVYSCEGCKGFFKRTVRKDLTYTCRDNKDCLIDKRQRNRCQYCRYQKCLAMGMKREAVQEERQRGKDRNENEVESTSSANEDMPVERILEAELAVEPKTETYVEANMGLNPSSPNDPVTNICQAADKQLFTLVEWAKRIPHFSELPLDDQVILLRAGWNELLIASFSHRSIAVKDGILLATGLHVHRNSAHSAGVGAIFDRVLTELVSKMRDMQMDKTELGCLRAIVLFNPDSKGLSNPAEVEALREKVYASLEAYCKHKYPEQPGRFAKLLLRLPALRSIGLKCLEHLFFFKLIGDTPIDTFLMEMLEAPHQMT
Briefly: In Vitro FXR Assay (TK): TK-ECRE-luc reporter in transfected CV-1 cells. It is filed as cell-based. The following applies: 18 hrs, luminescence, maximum efficacy of <25% of the Fexarmine control classified as '+'. The essentials:
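Luciferase read-out after 18 h compound exposure of CV-1 cells carrying transfected hFXR plus hRXR expression plasmids, TK-ECRE-luc reporter and pCMX-YFP. Cells cultured in charcoal-stripped FBS before transfection; compounds serially diluted in DMSO.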

`COc1ccc([C@H]2CC[C@H](CN(c3cc(-c4cnn(C5CC5)c4)ccn3)C(=O)[C@H]3CC[C@H](NC(=O)COC(C)=O)CC3)CC2)cc1C` [Compound 26.31, 2-((trans-4-(4-(1-Cyclopropyl-1H-pyrazol-4-yl)pyridin-2-yl)((trans-4-(4-methoxy-3-methylphenyl)cyclohexyl)methyl)carbamoyl)cyclohexyl)amino)-2-oxoethyl acetate]: the concentration giving a half-maximal response (EC50) was no more than 250 nM.

On to `COc1ccc([C@H]2CC[C@H](CN(c3cccc(-c4cnn(C5CC5)c4)c3)C(=O)[C@H]3CC[C@H](OC(=O)NC4CC4)CC3)CC2)cc1C` [Compound 4.08, trans-4-((3-(1-Cyclopropyl-1H-pyrazol-4-yl)phenyl)((trans-4-(4-methoxy-3-methylphenyl)cyclohexyl)methyl)carbamoyl)cyclohexyl cyclopropylcarbamate], for which the EC50 was no more than 250 nM.

On to `COc1ccc([C@H]2CC[C@H](CN(c3cccc(-c4cnn(C5CC5)c4)c3)C(=O)[C@H]3CC[C@H](OC(=O)N4CC(SC)C4)CC3)CC2)cc1C` [Compound 6.30, trans-4-((3-(1-Cyclopropyl-1H-pyrazol-4-yl)phenyl)((trans-4-(4-methoxy-3-methylphenyl)cyclohexyl)methyl)carbamoyl)cyclohexyl 3-(methylthio) azetidine-1-carboxylate], for which the EC50 was no more than 250 nM.

Compound `COc1ccc([C@H]2CC[C@H](CN(c3cccc(-c4cnn(C5CC5)c4)c3)C(=O)[C@H]3CC[C@H](NS(C)(=O)=O)CC3)CC2)cc1C` [Compound 26.02, trans-N-(3-(1-Cyclopropyl-1H-pyrazol-4-yl)phenyl)-N-((trans-4-(4-methoxy-3-methylphenyl)cyclohexyl)methyl)-4-(methylsulfonamido) cyclohexanecarboxamide] gave an EC50 of no more than 250 nM.

For `COc1ccc([C@H]2CC[C@H](CN(c3cccc(-c4cnc(C(C)C)s4)c3)C(=O)[C@H]3CC[C@H](OC(=O)N4CC(O)C4)CC3)CC2)nc1C` [Compound 7.05, trans-4-((3-(2-Isopropylthiazol-5-yl)phenyl)((trans-4-(5-methoxy-6-methylpyridin-2-yl)cyclohexyl)methyl)carbamoyl)cyclohexyl 3-hydroxyazetidine-1-carboxylate], the EC50 is no more than 250 nM.

`COc1ccc([C@H]2CC[C@H](CN(c3cc(-c4cnn(C(C)C)c4)ccn3)C(=O)[C@H]3CC[C@H](OC(=O)N4CC(OC)C4)CC3)CC2)cc1C#N` [Compound 7.48, trans-4-(((trans-4-(3-Cyano-4-methoxyphenyl)cyclohexyl)methyl)(4-(1-isopropyl-1H-pyrazol-4-yl)pyridin-2-yl)carbamoyl)cyclohexyl 3-methoxyazetidine-1-carboxylate] returned an EC50 of no more than 250 nM.

With `CNC(=O)O[C@H]1CC[C@H](C(=O)N(C[C@H]2CC[C@H](c3ccc(OC)c(C#N)n3)CC2)c2cc(-c3cnc(C4CC4)s3)ccn2)CC1` [Compound 5.07, trans-4-(((trans-4-(6-Cyano-5-methoxypyridin-2-yl)cyclohexyl)methyl)(4-(2-cyclopropylthiazol-5-yl)pyridin-2-yl)carbamoyl)cyclohexyl methylcarbamate], the EC50 is no more than 250 nM.

As for `COc1ccc([C@H]2CC[C@H](CN(c3cc(-c4cnn(C(C)C)c4)ccn3)C(=O)[C@H]3CC[C@H](OC(=O)N4CCN(C)CC4)CC3)CC2)nc1C` [Compound 6.41, trans-4-((4-(1-Isopropyl-1H-pyrazol-4-yl)pyridin-2-yl)((trans-4-(5-methoxy-6-methylpyridin-2-yl)cyclohexyl)methyl)carbamoyl)cyclohexyl 4-methylpiperazine-1-carboxylate], the EC50 was no more than 250 nM.

Turning to `COc1ccc([C@H]2CC[C@H](CN(c3cc(-c4coc(C(C)C)n4)ccn3)C(=O)[C@H]3CC[C@H](CC(=O)O)CC3)CC2)cc1C#N` [Compound 21.11, 2-(trans-4-(((trans-4-(3-Cyano-4-methoxyphenyl)cyclohexyl)methyl)(4-(2-isopropyloxazol-4-yl)pyridin-2-yl)carbamoyl)cyclohexyl)acetic acid], the EC50 is no more than 250 nM.
